Results reported in PubChem BioAssay (NCI).
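Grown in 96-well plates, cells were treated for 48 hours with each compound at five concentrations. Insufficient inhibition: endpoint recorded as highest concentration tested. Abbreviation: GI50, concentration required for 50% inhibition of growth. TGI: total growth inhibition.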

What was measured:
Experiment in all cases: NCI tumour cell line growth inhibition, 48 h
SK-MEL-2 melanoma = tested on: SK-MEL-2 melanoma
BT-549 breast = tested on: BT-549 breast
SK-MEL-5 melanoma = tested on: SK-MEL-5 melanoma
PC-3 prostate = tested on: PC-3 prostate
SNB-19 CNS = tested on: SNB-19 CNS
OVCAR-8 ovarian = tested on: OVCAR-8 ovarian
T-47D breast = tested on: T-47D breast
UACC-257 melanoma = tested on: UACC-257 melanoma
EKVX NSCLC = tested on: EKVX NSCLC
SN12C renal = tested on: SN12C renal
NCI-H226 lung = tested on: NCI-H226 lung
MOLT-4 leukemia = tested on: MOLT-4 leukemia
OVCAR-4 ovarian = tested on: OVCAR-4 ovarian
COLO 205 colon = tested on: COLO 205 colon
ACHN renal = tested on: ACHN renal
HS 578T breast = tested on: HS 578T breast
NCI-H522 lung = tested on: NCI-H522 lung
U251 CNS = tested on: U251 CNS
DU-145 prostate = tested on: DU-145 prostate
CCRF-CEM leukemia = tested on: CCRF-CEM leukemia
HCT-116 colon = tested on: HCT-116 colon
UO-31 renal = tested on: UO-31 renal
HOP-92 NSCLC = tested on: HOP-92 NSCLC
HT29 colon = tested on: HT29 colon
CAKI-1 renal = tested on: CAKI-1 renal
SK-MEL-28 melanoma = tested on: SK-MEL-28 melanoma
SW-620 colon = tested on: SW-620 colon
M14 melanoma = tested on: M14 melanoma
MCF7 breast = tested on: MCF7 breast
NCI-H23 lung = tested on: NCI-H23 lung
HCC-2998 colon = tested on: HCC-2998 colon
SK-OV-3 ovarian = tested on: SK-OV-3 ovarian
HCT-15 colon = tested on: HCT-15 colon
SNB-75 CNS = tested on: SNB-75 CNS
NCI-H460 lung = tested on: NCI-H460 lung
MDA-MB-231 breast = tested on: MDA-MB-231 breast
786-0 renal = tested on: 786-0 renal
A549 NSCLC = tested on: A549 NSCLC
SF-295 CNS = tested on: SF-295 CNS
HOP-62 NSCLC = tested on: HOP-62 NSCLC
RPMI-8226 leukemia = tested on: RPMI-8226 leukemia
MDA-MB-435 = tested on: MDA-MB-435
TK-10 renal = tested on: TK-10 renal
MALME-3M melanoma = tested on: MALME-3M melanoma
IGROV1 ovarian = tested on: IGROV1 ovarian
UACC-62 melanoma = tested on: UACC-62 melanoma
SF-539 CNS = tested on: SF-539 CNS
NCI/ADR-RES ovarian = tested on: NCI/ADR-RES ovarian
OVCAR-5 ovarian = tested on: OVCAR-5 ovarian
K-562 leukemia = tested on: K-562 leukemia
SF-268 CNS = tested on: SF-268 CNS
A498 renal = tested on: A498 renal

Question: With `COc1ccc2nc(-c3ccccc3)cc(Nc3cccc(C(C)=O)c3)c2c1` as the compound, how does the GI50 (SK-MEL-2 melanoma) read?
Answer: The GI50 was 38.8 µM.

Question: What about the TGI (SK-MEL-2 melanoma) of the same compound?
Answer: The TGI was greater than 100 µM.

Question: And the GI50 (BT-549 breast)?
Answer: The GI50 was 18.2 µM.

Question: And the TGI (BT-549 breast)?
Answer: The TGI was 40.3 µM.

Question: And the GI50 (SK-MEL-5 melanoma)?
Answer: Its GI50 is 8.89 µM.

Question: And the TGI (SK-MEL-5 melanoma)?
Answer: Its TGI is 24.3 µM.

Question: What about the GI50 (PC-3 prostate) of the same compound?
Answer: Its GI50 is 21.5 µM.

Question: What about the TGI (PC-3 prostate) of the same compound?
Answer: Its TGI is 50.6 µM.

Question: And the GI50 (SNB-19 CNS)?
Answer: The GI50 was 17.2 µM.

Question: What about the TGI (SNB-19 CNS) of the same compound?
Answer: Its TGI is greater than 100 µM.

Question: And the GI50 (OVCAR-8 ovarian)?
Answer: The GI50 was 2230 nM.

Question: And the TGI (OVCAR-8 ovarian)?
Answer: The TGI was 14.8 µM.

Question: What about the GI50 (T-47D breast) of the same compound?
Answer: Its GI50 is 13.4 µM.

Question: And the TGI (T-47D breast)?
Answer: Its TGI is greater than 100 µM.

Question: And the GI50 (UACC-257 melanoma)?
Answer: Its GI50 is 18.3 µM.

Question: What about the TGI (UACC-257 melanoma) of the same compound?
Answer: Its TGI is 78.7 µM.

Question: And the GI50 (EKVX NSCLC)?
Answer: The GI50 was 13.6 µM.

Question: And the TGI (EKVX NSCLC)?
Answer: The TGI was 34.3 µM.

Question: And the GI50 (SN12C renal)?
Answer: The GI50 was 3.96 µM.

Question: What about the TGI (SN12C renal) of the same compound?
Answer: Its TGI is 17.9 µM.

Question: And the GI50 (NCI-H226 lung)?
Answer: The GI50 was 16.1 µM.

Question: And the TGI (NCI-H226 lung)?
Answer: The TGI was 34.3 µM.

Question: And the GI50 (MOLT-4 leukemia)?
Answer: Its GI50 is 7.57 µM.

Question: And the TGI (MOLT-4 leukemia)?
Answer: Its TGI is greater than 100 µM.

Question: What about the GI50 (OVCAR-4 ovarian) of the same compound?
Answer: Its GI50 is 7.05 µM.

Question: What about the TGI (OVCAR-4 ovarian) of the same compound?
Answer: Its TGI is 62.8 µM.

Question: What about the GI50 (COLO 205 colon) of the same compound?
Answer: The GI50 was 6.58 µM.

Question: And the TGI (COLO 205 colon)?
Answer: Its TGI is 41.1 µM.

Question: And the GI50 (ACHN renal)?
Answer: The GI50 was 5.78 µM.

Question: And the TGI (ACHN renal)?
Answer: The TGI was 22.5 µM.

Question: And the GI50 (HS 578T breast)?
Answer: Its GI50 is 10.5 µM.

Question: What about the TGI (HS 578T breast) of the same compound?
Answer: Its TGI is 35.6 µM.

Question: What about the GI50 (NCI-H522 lung) of the same compound?
Answer: Its GI50 is 31.6 µM.

Question: What about the TGI (NCI-H522 lung) of the same compound?
Answer: Its TGI is greater than 100 µM.

Question: What about the GI50 (U251 CNS) of the same compound?
Answer: Its GI50 is 1960 nM.

Question: And the TGI (U251 CNS)?
Answer: Its TGI is 16.8 µM.

Question: And the GI50 (DU-145 prostate)?
Answer: Its GI50 is 13.2 µM.

Question: And the TGI (DU-145 prostate)?
Answer: The TGI was 32.3 µM.

Question: And the GI50 (CCRF-CEM leukemia)?
Answer: Its GI50 is greater than 100 µM.

Question: And the TGI (CCRF-CEM leukemia)?
Answer: Its TGI is greater than 100 µM.

Question: And the GI50 (HCT-116 colon)?
Answer: The GI50 was 3.72 µM.

Question: What about the TGI (HCT-116 colon) of the same compound?
Answer: Its TGI is 15.4 µM.

Question: And the GI50 (UO-31 renal)?
Answer: Its GI50 is 22.8 µM.

Question: And the TGI (UO-31 renal)?
Answer: Its TGI is greater than 100 µM.

Question: And the GI50 (HOP-92 NSCLC)?
Answer: Its GI50 is 15.2 µM.

Question: And the TGI (HOP-92 NSCLC)?
Answer: Its TGI is 38.4 µM.

Question: What about the GI50 (HT29 colon) of the same compound?
Answer: The GI50 was 3.67 µM.

Question: What about the TGI (HT29 colon) of the same compound?
Answer: The TGI was greater than 100 µM.

Question: What about the GI50 (CAKI-1 renal) of the same compound?
Answer: Its GI50 is 12.6 µM.

Question: What about the TGI (CAKI-1 renal) of the same compound?
Answer: The TGI was 28.2 µM.

Question: What about the GI50 (SK-MEL-28 melanoma) of the same compound?
Answer: The GI50 was 12.4 µM.

Question: And the TGI (SK-MEL-28 melanoma)?
Answer: Its TGI is 43.4 µM.

Question: What about the GI50 (SW-620 colon) of the same compound?
Answer: Its GI50 is 2700 nM.

Question: What about the TGI (SW-620 colon) of the same compound?
Answer: The TGI was 15.1 µM.

Question: And the GI50 (M14 melanoma)?
Answer: The GI50 was 5.11 µM.

Question: And the TGI (M14 melanoma)?
Answer: Its TGI is 20.2 µM.

Question: And the GI50 (MCF7 breast)?
Answer: The GI50 was 7.95 µM.

Question: What about the TGI (MCF7 breast) of the same compound?
Answer: Its TGI is 33.2 µM.

Question: What about the GI50 (NCI-H23 lung) of the same compound?
Answer: The GI50 was 14 µM.

Question: And the TGI (NCI-H23 lung)?
Answer: The TGI was 33.1 µM.

Question: What about the GI50 (HCC-2998 colon) of the same compound?
Answer: The GI50 was 13.2 µM.

Question: And the TGI (HCC-2998 colon)?
Answer: Its TGI is 45.1 µM.

Question: What about the GI50 (SK-OV-3 ovarian) of the same compound?
Answer: The GI50 was 19.7 µM.

Question: And the TGI (SK-OV-3 ovarian)?
Answer: Its TGI is 56.5 µM.

Question: What about the GI50 (HCT-15 colon) of the same compound?
Answer: The GI50 was 4.93 µM.

Question: What about the TGI (HCT-15 colon) of the same compound?
Answer: The TGI was 22.1 µM.

Question: What about the GI50 (SNB-75 CNS) of the same compound?
Answer: The GI50 was 12.2 µM.

Question: What about the TGI (SNB-75 CNS) of the same compound?
Answer: Its TGI is 38.4 µM.

Question: What about the GI50 (NCI-H460 lung) of the same compound?
Answer: Its GI50 is 6.38 µM.

Question: What about the TGI (NCI-H460 lung) of the same compound?
Answer: Its TGI is 40.7 µM.

Question: And the GI50 (MDA-MB-231 breast)?
Answer: Its GI50 is 9.65 µM.

Question: And the TGI (MDA-MB-231 breast)?
Answer: Its TGI is 28.3 µM.

Question: What about the GI50 (786-0 renal) of the same compound?
Answer: The GI50 was 2660 nM.

Question: What about the TGI (786-0 renal) of the same compound?
Answer: The TGI was 9.64 µM.

Question: And the GI50 (A549 NSCLC)?
Answer: Its GI50 is 15.3 µM.

Question: And the TGI (A549 NSCLC)?
Answer: The TGI was 55.6 µM.

Question: What about the GI50 (SF-295 CNS) of the same compound?
Answer: Its GI50 is 12.7 µM.

Question: And the TGI (SF-295 CNS)?
Answer: Its TGI is 31.6 µM.

Question: And the GI50 (HOP-62 NSCLC)?
Answer: Its GI50 is 2080 nM.

Question: And the TGI (HOP-62 NSCLC)?
Answer: Its TGI is 4.88 µM.

Question: And the GI50 (RPMI-8226 leukemia)?
Answer: Its GI50 is 33.2 µM.

Question: And the TGI (RPMI-8226 leukemia)?
Answer: The TGI was greater than 100 µM.

Question: And the GI50 (MDA-MB-435)?
Answer: The GI50 was 4.51 µM.

Question: And the TGI (MDA-MB-435)?
Answer: The TGI was 17.1 µM.

Question: And the GI50 (TK-10 renal)?
Answer: Its GI50 is 12.6 µM.

Question: And the TGI (TK-10 renal)?
Answer: The TGI was 28.5 µM.

Question: What about the GI50 (MALME-3M melanoma) of the same compound?
Answer: The GI50 was 12.5 µM.

Question: And the TGI (MALME-3M melanoma)?
Answer: The TGI was 27.7 µM.

Question: What about the GI50 (IGROV1 ovarian) of the same compound?
Answer: Its GI50 is 20.6 µM.

Question: What about the TGI (IGROV1 ovarian) of the same compound?
Answer: Its TGI is greater than 100 µM.

Question: What about the GI50 (UACC-62 melanoma) of the same compound?
Answer: Its GI50 is 15.4 µM.

Question: What about the TGI (UACC-62 melanoma) of the same compound?
Answer: Its TGI is 31.4 µM.

Question: What about the GI50 (SF-539 CNS) of the same compound?
Answer: Its GI50 is 1670 nM.

Question: And the TGI (SF-539 CNS)?
Answer: The TGI was 3.66 µM.

Question: And the GI50 (NCI/ADR-RES ovarian)?
Answer: The GI50 was 4.89 µM.

Question: What about the TGI (NCI/ADR-RES ovarian) of the same compound?
Answer: The TGI was 34.1 µM.

Question: What about the GI50 (OVCAR-5 ovarian) of the same compound?
Answer: Its GI50 is 13.1 µM.

Question: What about the TGI (OVCAR-5 ovarian) of the same compound?
Answer: Its TGI is 29.9 µM.

Question: What about the GI50 (K-562 leukemia) of the same compound?
Answer: Its GI50 is 7.73 µM.

Question: What about the TGI (K-562 leukemia) of the same compound?
Answer: The TGI was greater than 100 µM.

Question: What about the GI50 (SF-268 CNS) of the same compound?
Answer: Its GI50 is 2220 nM.

Question: And the TGI (SF-268 CNS)?
Answer: Its TGI is 8.61 µM.

Question: What about the GI50 (A498 renal) of the same compound?
Answer: Its GI50 is 2420 nM.

Question: What about the TGI (A498 renal) of the same compound?
Answer: The TGI was 15 µM.
